Results: patent publication US11667602B2, “Compounds and their use” (AstraZeneca AB, priority 2020, dated 2023)
Converted amounts (≈) assume the structure as drawn.

How the values were obtained:
[1] = Rat Hepatocyte Stability (Test E); format: in vitro ADME; settings: rat, hepatocytes, geometric mean if run multiple times
Outline: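 Intrinsic clearance in rat hepatocytes, expressed as μl/min/10^6 cells, following the literature integrated DMPK panel method. Repeat determinations combined as geometric mean.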

[2] = Human Liver Microsomal Stability (Test C); format: in vitro ADME; settings: human, liver microsomes
Outline: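 CLint (μl/min/mg protein) derived from compound depletion in human liver microsomes following a published standardized early-DMPK protocol; replicate determinations given as arithmetic mean.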

[3] = Solubility (Test F); format: physicochemical; settings: arithmetic mean if run multiple times
Experimental: The assay was conducted according to the Solubility Assay described in pages 164-167 of Wernevik, J. et al., “A Fully Integrated Assay Panel for Early Drug Metabolism and Pharmacokinetics Profiling”, Assay and Drug Development Technologies, 2020, 18(4), 157-179. Data are reported in Table 36 as solubility ([…]. Where the assay was run multiple times for the same compound, the arithmetic mean is reported.

[4] = Human Plasma Protein Binding (Test B); format: in vitro ADME; settings: fraction unbound (fu)
Outline: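 Values given as % free (fu) in human plasma, using the method of Wernevik et al. (2020). For compounds tested more than once, the arithmetic mean is given.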

[5] = biological target: T1, human RXFP1 (Homo sapiens, UniProt Q9HBX9); assay: RXFP1 Hu cAMP (Test A); format: cell-based; design: expressed in transfected cells; host or cells: Jump-In T-REx CHO-K1 cells (ThermoFisher), induced with 10 ng/ml doxycycline for 24 h; settings: RXFP1 Hu cAMP; for EC50: read-out: Test A EC50
T1 sequence (Q9HBX9 1-757): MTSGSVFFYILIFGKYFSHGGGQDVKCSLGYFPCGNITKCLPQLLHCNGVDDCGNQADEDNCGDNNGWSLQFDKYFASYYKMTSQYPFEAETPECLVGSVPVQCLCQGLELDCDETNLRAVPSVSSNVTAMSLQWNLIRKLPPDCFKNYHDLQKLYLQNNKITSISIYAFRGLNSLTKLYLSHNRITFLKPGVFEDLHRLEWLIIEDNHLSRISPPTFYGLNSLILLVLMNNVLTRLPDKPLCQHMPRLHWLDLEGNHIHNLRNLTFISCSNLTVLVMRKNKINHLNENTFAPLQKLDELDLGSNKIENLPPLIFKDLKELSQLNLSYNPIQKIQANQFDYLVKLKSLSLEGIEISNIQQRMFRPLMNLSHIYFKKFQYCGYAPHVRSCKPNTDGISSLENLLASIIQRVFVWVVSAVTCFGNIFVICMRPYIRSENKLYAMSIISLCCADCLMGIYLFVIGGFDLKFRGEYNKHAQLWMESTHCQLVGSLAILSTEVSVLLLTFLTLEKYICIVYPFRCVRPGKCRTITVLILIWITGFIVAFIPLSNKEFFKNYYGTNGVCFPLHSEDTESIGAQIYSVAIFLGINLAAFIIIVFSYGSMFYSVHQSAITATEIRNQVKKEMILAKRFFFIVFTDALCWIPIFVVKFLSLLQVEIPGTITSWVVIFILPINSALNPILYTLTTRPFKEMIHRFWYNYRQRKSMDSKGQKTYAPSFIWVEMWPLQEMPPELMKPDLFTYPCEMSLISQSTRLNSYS
Outline: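 Doxycycline-induced (10 ng/ml, 24 h) CHO-K1 cells stably expressing human RXFP1; cAMP read by competitive HTRF after 2 h at room temperature, with 0.5 mM IBMX final.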

**Q.** Which hepatocyte CLint [1] does the source give for `CCCCNC(=O)[C@H]1[C@@H]2CC[C@@H](C2)[C@H]1NC(=O)c1cc(O[C@H]2CC[C@@](C)(C(=O)O)CC2)c(C#N)cc1OC` [Example 91] here?
**A.** Its hepatocyte CLint is 59 µL/min/1e6 cells.

**Q.** And the microsomal CLint [2]?
**A.** Its microsomal CLint is 20 µL/min/mg.

**Q.** What about the solubility [3] of the same compound?
**A.** The solubility was 830 µM (≈ 436 µg/mL).

**Q.** And the “Test B Human Plasma Protein Binding (% free)” value [4]?
**A.** Its value is 5.9 % free.

**Q.** What about the “Test A Sinf” value [5] of the same compound?
**A.** Its value is 114%.

**Q.** And the EC50 [5]?
**A.** The EC50 was 270 nM.

**Q.** Which results are given for `COc1cc(F)c(O[C@H]2CC[C@@H](C(=O)O)CC2)cc1C(=O)N[C@@H]1[C@H]2CC[C@H](C2)[C@@H]1C(=O)Nc1c(F)c(F)c(F)c(F)c1F` [Example 16, (1S,4s)-4-(2-Fluoro-4-methoxy-5-(((1S,2R,3S,4R)-3-((perfluorophenyl)carbamoyl)bicyclo[2.2.1]heptan-2-yl)carbamoyl)phenoxy)cyclohexane-1-carboxylic acid]?
**A.** hepatocyte CLint [1]: 49 µL/min/1e6 cells; microsomal CLint [2]: 9.3 µL/min/mg; solubility [3]: 330 µM (≈ 203 µg/mL); Test B Human Plasma Protein Binding (% free) [4]: 2.2 % free; Test A Sinf [5]: 93%; EC50 [5]: 330 nM

**Q.** Which hepatocyte CLint [1] does the source give for `COc1cc(F)c(-c2ccc([C@@H]3C[C@H]3C(=O)O)nc2)cc1C(=O)N[C@@H]1[C@H]2CC[C@H](C2)[C@@H]1C(=O)Nc1cccc(S(=O)(=O)C(F)(F)F)c1` (single isomer, unassigned) [Example 261, (1R*,2R*)-2-(5-(2-Fluoro-4-methoxy-5-(((1S,2R,3S,4R)-3-((3-((trifluoromethyl)sulfonyl)phenyl)carbamoyl)bicyclo[2.2.1]heptan-2-yl)carbamoyl)phenyl)pyridin-2-yl)cyclopropane-1-carboxylic acid] here?
**A.** The hepatocyte CLint was 84 µL/min/1e6 cells.

**Q.** What about the microsomal CLint [2] of the same compound?
**A.** The microsomal CLint was 57 µL/min/mg.

**Q.** What about the solubility [3] of the same compound?
**A.** Its solubility is > 1000 µM.

**Q.** And the “Test B Human Plasma Protein Binding (% free)” value [4]?
**A.** The value was 0.89 % free.

**Q.** What about the “Test A Sinf” value [5] of the same compound?
**A.** The value was 107%.

**Q.** And the EC50 [5]?
**A.** The EC50 was 130 nM.

**Q.** Which hepatocyte CLint [1] does the source give for `COc1cc(F)c(-c2ccc(OCC(=O)O)nc2)cc1C(=O)N[C@@H]1[C@H]2CC[C@H](C2)[C@@H]1C(=O)Nc1cccc(S(=O)(=O)C(F)(F)F)c1` [Example 241] here?
**A.** Its hepatocyte CLint is 12 µL/min/1e6 cells.

**Q.** What about the microsomal CLint [2] of the same compound?
**A.** The microsomal CLint was 12 µL/min/mg.

**Q.** And the solubility [3]?
**A.** Its solubility is 550 µM (≈ 366 µg/mL).

**Q.** And the “Test B Human Plasma Protein Binding (% free)” value [4]?
**A.** Its value is 0.69 % free.

**Q.** And the “Test A Sinf” value [5]?
**A.** The value was 99%.

**Q.** What about the EC50 [5] of the same compound?
**A.** Its EC50 is 140 nM.

**Q.** What does the source list for `COc1cc(F)c(O[C@H]2CC[C@@H](C(=O)O)CC2)cc1C(=O)N[C@H]1[C@@H](C(=O)Nc2ccc(F)c(C(F)(F)F)c2)[C@H]2CC[C@@H]1O2` [Example 49, (1R,4s)-4-(2-Fluoro-5-(((1S,2S,3R,4R)-3-((4-fluoro-3-(trifluoromethyl)phenyl)carbamoyl)-7-oxabicyclo[2.2.1]heptan-2-yl)carbamoyl)-4-methoxyphenoxy)cyclohexane-1-carboxylic acid]?
**A.** hepatocyte CLint [1]: < 1 µL/min/1e6 cells; microsomal CLint [2]: < 3 µL/min/mg; solubility [3]: 24 µM (≈ 14.7 µg/mL); Test B Human Plasma Protein Binding (% free) [4]: 3.2 % free; EC50 [5]: > 50000 nM

**Q.** What does the source list for `COc1cc(F)c(O[C@H]2CC[C@@](C)(C(=O)O)CC2)cc1C(=O)N[C@@H]1CC[C@@H]1C(=O)Nc1ccc(F)c(C(F)(F)F)c1` [Example 51, (1S,4s)-4-(2-Fluoro-5-(((1R,2S)-2-((4-fluoro-3-(trifluoromethyl)phenyl)carbamoyl)cyclobutyl)carbamoyl)-4-methoxyphenoxy)-1-methylcyclohexane-1-carboxylic acid]?
**A.** hepatocyte CLint [1]: 55 µL/min/1e6 cells; microsomal CLint [2]: 8.5 µL/min/mg; solubility [3]: 170 µM (≈ 99.4 µg/mL); Test B Human Plasma Protein Binding (% free) [4]: 0.50 % free; Test A Sinf [5]: 112%; EC50 [5]: 58 nM

**Q.** Which results are given for `COc1cc(F)c(O[C@H]2CC[C@@H](C(=O)O)CC2)cc1C(=O)N[C@@H]1[C@H]2CC[C@H](C2)[C@@H]1C(=O)Nc1cc(C)cc(C(F)(F)F)c1` [Example 188]?
**A.** hepatocyte CLint [1]: 38 µL/min/1e6 cells; microsomal CLint [2]: 36 µL/min/mg; solubility [3]: 290 µM (≈ 176 µg/mL); Test B Human Plasma Protein Binding (% free) [4]: 0.64 % free; Test A Sinf [5]: 103%; EC50 [5]: 270 nM

**Q.** Which hepatocyte CLint [1] does the source give for `COc1cc(F)c(O[C@H]2CC[C@@H](C(=O)O)CC2)cc1C(=O)N[C@@H]1[C@H]2CC[C@H](C2)[C@@H]1C(=O)Nc1cccc(S(F)(F)(F)(F)F)c1` [Example 182] here?
**A.** Its hepatocyte CLint is 35 µL/min/1e6 cells.

**Q.** What about the microsomal CLint [2] of the same compound?
**A.** Its microsomal CLint is 34 µL/min/mg.

**Q.** What about the solubility [3] of the same compound?
**A.** The solubility was 200 µM (≈ 130 µg/mL).

**Q.** What about the “Test B Human Plasma Protein Binding (% free)” value [4] of the same compound?
**A.** The value was 0.45 % free.

**Q.** What about the “Test A Sinf” value [5] of the same compound?
**A.** The value was 107%.

**Q.** And the EC50 [5]?
**A.** The EC50 was 19 nM.
